{"source": "ChEMBL document CHEMBL1148726", "about": "“Allosteric inhibitors of hepatitis C polymerase: discovery of potent and orally bioavailable carbon-linked dihydropyrones” (J Med Chem, 2007)", "key": {"[1]": {"test_system": "Hepatitis C virus", "experiment": "Antiviral activity against Hepatitis C virus infected Huh7 cells", "type": "functional, organism-based, Hepacivirus hominis, Huh-7"}, "[2]": {"experiment": "Inhibition of HCV 1b NS5B delta21 RNA dependent RNA polymerase by enzymatic assay", "parameters": "species or system Hepacivirus hominis"}, "[3]": {"experiment": "Cytotoxic against Huh7 cells", "type": "cell-based, Huh-7", "settings": "human"}, "[4]": {"test_system": "Rattus norvegicus", "experiment": "(§1) Half life in rat at 25 mg/kg, po or 5 mg/kg, iv", "type": "ADME, organism-based", "settings": "in vivo"}, "[5]": {"experiment": "(§2) Bioavailability in rat at 10 mg/kg, po", "type": "ADME, organism-based", "settings": "in vivo"}, "[6]": {"test_system": "Rattus norvegicus", "experiment": "(§3) Volume of distribution in rat at 25 mg/kg, po or 5 mg/kg, iv", "type": "ADME, organism-based", "settings": "in vivo"}, "[7]": {"experiment": "Total plasma clearance in rat at 10 mg/kg, po or 2 mg/kg, iv", "type": "ADME, organism-based"}, "[8]": {"experiment": "Permeability from apical to basolateral side of the Caco-2 cell membrane", "type": "ADME, cell-based", "settings": "human"}, "[9]": {"experiment": "Volume of distribution in rat at 10 mg/kg, po or 2 mg/kg, iv", "type": "ADME, organism-based", "settings": "in vivo, read-out: Vdss"}, "[10]": {"experiment": "Fraction absorption in rat at 10 mg/kg, po", "type": "ADME, organism-based", "parameters": "dose 10 mg/kg, route oral", "settings": "in vivo"}, "[11]": {"experiment": "Half life in rat at 10 mg/kg, po or 2 mg/kg, iv", "type": "ADME, organism-based", "settings": "in vivo"}, "[12]": {"experiment": "Permeability from basolateral to apical side of the Caco-2 cell membrane", "type": "ADME, cell-based", "settings": "human"}, "[13]": {"experiment": "Ratio of EC50 for HCV in Huh7 cells to IC50 for HCV NS5 B delta 21 polymerase", "type": "functional, Hepacivirus hominis, Huh-7"}, "[14]": {"test_system": "Hepacivirus hominis", "experiment": "(§4) Inhibition of HCV 1a NS5B delta21 RNA dependent RNA polymerase by enzymatic assay"}, "[15]": {"experiment": "as §1", "type": "ADME, organism-based", "settings": "in vivo"}, "[16]": {"experiment": "Total plasma clearance in rat at 25 mg/kg, po or 5 mg/kg, iv", "type": "ADME, organism-based"}, "[17]": {"test_system": "Rattus norvegicus", "experiment": "as §2", "type": "ADME, organism-based", "settings": "in vivo"}, "[18]": {"experiment": "as §4", "parameters": "species or system Hepacivirus hominis"}, "[19]": {"experiment": "as §3", "type": "ADME, organism-based", "settings": "in vivo, read-out: Vdss"}, "[20]": {"experiment": "Fraction absorption in rat at 25 mg/kg, po", "type": "ADME, organism-based", "parameters": "dose 25 mg/kg, route oral", "settings": "in vivo"}, "[21]": {"experiment": "Bioavailability in rat at 25 mg/kg, po", "type": "ADME, organism-based", "settings": "in vivo"}}, "note": "Calls of active or inactive are those of the source. No cut-off for these calls is given here."}
{"smiles": "Cc1cc(C)n2nc(CC3=C(O)CC(CCc4ccc(C(C)(C)C#N)c(F)c4)(C4CCCC4)OC3=O)nc2n1", "note": "(stereo in doubt; 22)", "values": [{"measurement": "EC50", "setting": "[1]; huh-7", "result": 30, "unit": "nM"}, {"measurement": "IC50", "setting": "[2]", "result": 3, "unit": "nM"}, {"measurement": "CC50", "setting": "[3]; huh-7", "result": "> 32000", "unit": "nM"}]}
{"smiles": "Cc1cc(C)n2nc(CC3=C(O)CC(CCc4ccc(C(C)(C)C#N)c(F)c4)(C4CCCC4)OC3=O)nc2n1", "note": "(single isomer, unassigned; enantiomer 2) [listing 1 of 2 here]", "values": [{"measurement": "t1/2", "setting": "[4]", "result": 28.2, "unit": "min"}, {"measurement": "bioavailability", "setting": "[5]", "result": 37, "unit": "%"}, {"measurement": "EC50", "setting": "[1]; huh-7", "result": 32, "unit": "nM"}, {"measurement": "IC50", "setting": "[2]", "result": 1, "unit": "nM"}, {"measurement": "Vdss", "setting": "[6]", "result": 0.17, "unit": "L/kg"}]}
{"smiles": "Cc1cc(C)n2nc(CC3=C(O)CC(CCc4ccc(C(C)(C)NS(C)(=O)=O)c(F)c4)(C4CCCC4)OC3=O)nc2n1", "note": "(stereo not given)", "values": [{"measurement": "EC50", "setting": "[1]; Hepatitis C virus, Huh-7", "result": 110, "unit": "nM"}, {"measurement": "IC50", "setting": "[2]", "result": 17, "unit": "nM"}, {"measurement": "CC50", "setting": "[3]; Huh7 cells", "result": "> 32000", "unit": "nM"}]}
{"smiles": "COc1ccc(CCC2(C3CCCC3)CC(O)=C(Cc3nc4nc(C)cc(C)n4n3)C(=O)O2)cc1Cl", "note": "(stereo not given)", "values": [{"measurement": "clearance", "setting": "[7]", "result": 8.3, "unit": "mL/min/kg"}, {"measurement": "Papp A→B", "setting": "[8]", "result": 10, "unit": "×10⁻⁶ cm/s"}, {"measurement": "Vd", "setting": "[9]", "result": 0.3, "unit": "L/kg"}, {"measurement": "bioavailability", "setting": "[5]", "result": 42, "unit": "%"}, {"measurement": "EC50", "setting": "[1]; Hepatitis C virus, Huh-7", "result": 330, "unit": "nM"}, {"measurement": "IC50", "setting": "[2]", "result": 20, "unit": "nM"}, {"measurement": "Fa", "setting": "[10]", "result": 48, "unit": "%"}, {"measurement": "half-life", "setting": "[11]", "result": 30, "unit": "min"}, {"measurement": "Papp B→A", "setting": "[12]", "result": 6.8, "unit": "×10⁻⁶ cm/s"}, {"measurement": "Ratio", "setting": "[13]", "result": 17}, {"measurement": "CC50", "setting": "[3]; Huh7 cells", "result": "> 32000", "unit": "nM"}]}
{"smiles": "COc1ccc(CCC2(C3CCCC3)CC(O)=C(Cc3nc4nc(C)cc(C)n4n3)C(=O)O2)cc1C", "note": "(stereo not given)", "values": [{"measurement": "EC50", "setting": "[1]; Hepatitis C virus, Huh-7", "result": 1200, "unit": "nM"}, {"measurement": "IC50", "setting": "[2]", "result": 54, "unit": "nM"}, {"measurement": "CC50", "setting": "[3]; Huh7 cells", "result": "> 32000", "unit": "nM"}]}
{"smiles": "Cc1cc(C)n2nc(CC3=C(O)CC(CCc4ccc(C(C)(C)C#N)c(F)c4)(C4CCCC4)OC3=O)nc2n1", "note": "(single isomer, unassigned; enantiomer 2) [listing 2 of 2 here]", "values": [{"measurement": "Activity", "setting": "[14]", "result": "inactive"}]}
{"smiles": "Cc1cc(C)n2nc(CC3=C(O)CC(CCc4ccc(C(C)(C)C#N)c(F)c4)(C4CCCC4)OC3=O)nc2n1", "note": "(single isomer, unassigned; enantiomer 1)", "values": [{"measurement": "half-life", "setting": "[15]", "result": 52.8, "unit": "min"}, {"measurement": "clearance", "setting": "[16]", "result": 3.7, "unit": "mL/min/kg"}, {"measurement": "F", "setting": "[17]", "result": 31, "unit": "%"}, {"measurement": "IC50", "setting": "[18]", "result": 70, "unit": "nM"}, {"measurement": "Vd", "setting": "[19]", "result": 0.3, "unit": "L/kg"}, {"measurement": "CC50", "setting": "[3]; huh-7", "result": 320000, "unit": "nM"}]}
{"smiles": "CCOc1ccc(CCC2(C3CCCC3)CC(O)=C(Cc3nc4nc(C)cc(C)n4n3)C(=O)O2)cc1Cl", "note": "(stereo not given)", "values": [{"measurement": "EC50", "setting": "[1]; Hepatitis C virus, Huh-7", "result": 320, "unit": "nM"}, {"measurement": "IC50", "setting": "[2]", "result": 4, "unit": "nM"}, {"measurement": "CC50", "setting": "[3]; Huh7 cells", "result": "> 32000", "unit": "nM"}]}
{"smiles": "Cc1cc(C)n2nc(CC3=C(O)CC(CCc4ccc(S(C)(=O)=O)c(Cl)c4)(C4CCCC4)OC3=O)nc2n1", "note": "(stereo not given)", "values": [{"measurement": "EC50", "setting": "[1]; Hepatitis C virus, Huh-7", "result": 610, "unit": "nM"}, {"measurement": "IC50", "setting": "[2]", "result": 60, "unit": "nM"}, {"measurement": "CC50", "setting": "[3]; Huh7 cells", "result": "> 32000", "unit": "nM"}]}
{"smiles": "Cc1cc(C)n2nc(CC3=C(O)CC(CCc4ccc(C(C)(C)C#N)c(Cl)c4)(C4CCCC4)OC3=O)nc2n1", "note": "(stereo not given)", "values": [{"measurement": "IC50", "setting": "[2]", "result": 2, "unit": "nM"}, {"measurement": "CC50", "setting": "[3]; Huh7 cells", "result": "> 32000", "unit": "nM"}]}
{"smiles": "COc1ccc(CCC2(C3CCCC3)CC(O)=C(Sc3nc4nc(C)cc(C)n4n3)C(=O)O2)cc1Cl", "note": "(stereo not given)", "values": [{"measurement": "half-life", "setting": "[15]", "result": 90, "unit": "min"}, {"measurement": "Papp A→B", "setting": "[8]", "result": 3, "unit": "×10⁻⁶ cm/s"}, {"measurement": "clearance", "setting": "[16]", "result": 14.8, "unit": "mL/min/kg"}, {"measurement": "Fa", "setting": "[20]", "result": 2.5, "unit": "%"}, {"measurement": "EC50", "setting": "[1]; Hepatitis C virus, Huh-7", "result": 3250, "unit": "nM"}, {"measurement": "bioavailability", "setting": "[21]", "result": 2, "unit": "%"}, {"measurement": "IC50", "setting": "[2]", "result": 36, "unit": "nM"}, {"measurement": "Papp B→A", "setting": "[12]", "result": 2.3, "unit": "×10⁻⁶ cm/s"}, {"measurement": "Ratio", "setting": "[13]", "result": 90}, {"measurement": "Vd", "setting": "[19]", "result": 2, "unit": "L/kg"}, {"measurement": "CC50", "setting": "[3]; Huh7 cells", "result": "> 100000", "unit": "nM"}]}
{"smiles": "Cc1cc(SC2=C(O)OC(CCc3ccc(O)cc3)(C3CCCC3)CC2=O)c(C(C)(C)C)cc1N", "note": "(stereo not given)", "values": [{"measurement": "IC50", "setting": "[2]", "result": 930, "unit": "nM"}]}
{"smiles": "COc1ccc(CCC2(C3CCCC3)CC(O)=C(Cc3nc4nc(C)cc(C)n4n3)C(=O)O2)cc1F", "note": "(stereo not given)", "values": [{"measurement": "EC50", "setting": "[1]; Hepatitis C virus, Huh-7", "result": 400, "unit": "nM"}, {"measurement": "IC50", "setting": "[2]", "result": 15, "unit": "nM"}, {"measurement": "CC50", "setting": "[3]; Huh7 cells", "result": "> 32000", "unit": "nM"}]}
